Columns and labels:
Assay type in all cases: in vivo
[1] = test system: barnyardgrass (Echinochloa crus-galli); assay: Test B pre-/postemergence plant response
How it was run: (§1)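 Scoring used a 0–100 scale (100 = complete control) by visual comparison with untreated plants after approximately 10 days in the greenhouse. Compounds, in surfactant-containing non-phytotoxic solvent, were sprayed onto soil at planting or onto 2–10 cm seedlings.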

corn (Zea mays) = assay: Test B pre-/postemergence plant response
How it was run: as §1

[2] = test system: giant foxtail (Setaria faberii); assay: Test B pre-/postemergence plant response
How it was run: as §1

[3] = test system: large (Lg) crabgrass (Digitaria sanguinalis); assay: Test B pre-/postemergence plant response
How it was run: as §1

[4] = test system: morningglory (Ipomoea spp.); assay: Test B pre-/postemergence plant response
How it was run: as §1

[5] = test system: pigweed (Amaranthus retroflexus); assay: Test B pre-/postemergence plant response
How it was run: as §1

[6] = test system: velvetleaf (Abutilon theophrasti); assay: Test B pre-/postemergence plant response
How it was run: as §1

[7] = test system: wheat (Triticum aestivum); assay: Test B pre-/postemergence plant response
How it was run: as §1

[8] = test system: barnyardgrass (Echinochloa crus-galli); assay: Test C flooded paddy test plant response; details: Flood, 250 g ai/ha; scale of 0 to 100 where 0 is no effect and 100 is complete control; 13 to 15 days
How it was run: (§2)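 Visual injury ratings (0, no effect; 100, complete control) were assigned after 13 to 15 days in a greenhouse, comparing treated plants with controls. Compounds had been added straight into paddy water over 2-leaf-stage plants flooded to 3 cm.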

[9] = test system: ducksalad (Heteranthera limosa); assay: Test C flooded paddy test plant response; details: Flood, 250 g ai/ha; scale of 0 to 100 where 0 is no effect and 100 is complete control; 13 to 15 days
How it was run: as §2

rice (Oryza sativa) = assay: Test C flooded paddy test plant response; details: Flood, 250 g ai/ha; scale of 0 to 100 where 0 is no effect and 100 is complete control; 13 to 15 days
How it was run: as §2

[10] = test system: small-flower umbrella sedge (Cyperus difformis); assay: Test C flooded paddy test plant response; details: Flood, 250 g ai/ha; scale of 0 to 100 where 0 is no effect and 100 is complete control; 13 to 15 days
How it was run: as §2

[11] = 125 g ai/ha, postemergence, 0 to 100 scale, 0 no effect, 100 complete control
[12] = Postemergence, 500 g ai/ha, 0 to 100 scale (0 no effect, 100 complete control)
[13] = Preemergence, 125 g ai/ha, 0 to 100 scale where 0 is no effect and 100 is complete control
[14] = Preemergence, 500 g ai/ha, 0 to 100 scale where 0 is no effect and 100 is complete control
[15] = Preemergence, 500 g ai/ha, 0 to 100 scale (0 no effect, 100 complete control)
[16] = 500 g ai/ha, postemergence, 0 to 100 scale, 0 no effect, 100 complete control
[17] = Preemergence, 125 g ai/ha, 0 to 100 scale (0 no effect, 100 complete control)

Clc1cnc(Oc2ccccc2-c2cc(Cl)cc(Cl)c2)nc1 [Compound 41]
Plant response rating, Barnyardgrass [1, 11]: 0
Plant response rating, Barnyardgrass [1, 12]: 20
Plant response rating, Barnyardgrass [1, 13]: 0
Plant response rating, Barnyardgrass [1, 14]: 0
Plant response rating, Corn (corn (Zea mays); [11]): 0
Plant response rating, Corn (corn (Zea mays); [12]): 10
Plant response rating, Corn (corn (Zea mays); [13]): 0
Plant response rating, Corn (corn (Zea mays); [14]): 0
Plant response rating, Foxtail, Giant [2, 11]: 10
Plant response rating, Foxtail, Giant [2, 12]: 20
Plant response rating, Foxtail, Giant [2, 13]: 0
Plant response rating, Foxtail, Giant [2, 14]: 20
Plant response rating, Crabgrass, Large [3, 11]: 10
Plant response rating, Crabgrass, Large [3, 12]: 20
Plant response rating, Crabgrass, Large [3, 13]: 0
Plant response rating, Crabgrass, Large [3, 14]: 10
Plant response rating, Morningglory [4, 11]: 0
Plant response rating, Morningglory [4, 12]: 10
Plant response rating, Morningglory [4, 13]: 0
Plant response rating, Morningglory [4, 14]: 0
Plant response rating, Pigweed [5, 11]: 40
Plant response rating, Pigweed [5, 12]: 70
Plant response rating, Pigweed [5, 13]: 0
Plant response rating, Pigweed [5, 14]: 0
Plant response rating, Velvetleaf [6, 11]: 10
Plant response rating, Velvetleaf [6, 12]: 30
Plant response rating, Velvetleaf [6, 13]: 0
Plant response rating, Velvetleaf [6, 14]: 0
Plant response rating, Wheat [7, 11]: 0
Plant response rating, Wheat [7, 12]: 0
Plant response rating, Wheat [7, 13]: 0
Plant response rating, Wheat [7, 14]: 0
Barnyardgrass plant response rating [8]: 0
Ducksalad plant response rating [9]: 0
Rice plant response rating (rice (Oryza sativa)): 0
Sedge, Umbrella plant response rating [10]: 0

FC(F)(F)c1cnc(Oc2ccccc2-c2cscn2)nc1 [Compound 14]
Plant response rating, Barnyardgrass [1, 11]: 0
Plant response rating, Barnyardgrass [1, 12]: 0
Plant response rating, Barnyardgrass [1, 13]: 0
Plant response rating, Barnyardgrass [1, 15]: 0
Plant response rating, Corn (corn (Zea mays); [11]): 0
Plant response rating, Corn (corn (Zea mays); [12]): 30
Plant response rating, Corn (corn (Zea mays); [13]): 0
Plant response rating, Corn (corn (Zea mays); [15]): 0
Plant response rating, Foxtail, Giant [2, 11]: 0
Plant response rating, Foxtail, Giant [2, 12]: 10
Plant response rating, Foxtail, Giant [2, 13]: 0
Plant response rating, Foxtail, Giant [2, 15]: 30
Plant response rating, Crabgrass, Large [3, 11]: 0
Plant response rating, Crabgrass, Large [3, 12]: 10
Plant response rating, Crabgrass, Large [3, 13]: 0
Plant response rating, Crabgrass, Large [3, 15]: 20
Plant response rating, Morningglory [4, 11]: 0
Plant response rating, Morningglory [4, 12]: 0
Plant response rating, Morningglory [4, 13]: 0
Plant response rating, Morningglory [4, 15]: 0
Plant response rating, Pigweed [5, 11]: 0
Plant response rating, Pigweed [5, 12]: 50
Plant response rating, Pigweed [5, 13]: 0
Plant response rating, Pigweed [5, 15]: 100
Plant response rating, Velvetleaf [6, 11]: 20
Plant response rating, Velvetleaf [6, 12]: 30
Plant response rating, Velvetleaf [6, 13]: 0
Plant response rating, Velvetleaf [6, 15]: 20
Plant response rating, Wheat [7, 11]: 0
Plant response rating, Wheat [7, 12]: 0
Plant response rating, Wheat [7, 13]: 0
Plant response rating, Wheat [7, 15]: 0
Barnyardgrass plant response rating [8]: 0
Ducksalad plant response rating [9]: 40
Rice plant response rating (rice (Oryza sativa)): 0
Sedge, Umbrella plant response rating [10]: 0

O=[N+]([O-])c1cc(Cl)cnc1-c1ccccc1Oc1ncc(Cl)cn1 [Compound 201]
Plant response rating, Barnyardgrass [1, 11]: 0
Plant response rating, Barnyardgrass [1, 16]: 0
Barnyardgrass plant response rating [1, 17]: 0
Plant response rating, Barnyardgrass [1, 14]: 0
Plant response rating, Corn (corn (Zea mays); [11]): 0
Plant response rating, Corn (corn (Zea mays); [16]): 0
Corn plant response rating (corn (Zea mays); [17]): 0
Plant response rating, Corn (corn (Zea mays); [14]): 0
Plant response rating, Foxtail, Giant [2, 11]: 0
Plant response rating, Foxtail, Giant [2, 16]: 0
Foxtail, Giant plant response rating [2, 17]: 0
Plant response rating, Foxtail, Giant [2, 14]: 0
Plant response rating, Crabgrass, Large [3, 11]: 0
Plant response rating, Crabgrass, Large [3, 16]: 0
Crabgrass, Large plant response rating [3, 17]: 0
Plant response rating, Crabgrass, Large [3, 14]: 0
Plant response rating, Morningglory [4, 11]: 0
Plant response rating, Morningglory [4, 16]: 0
Morningglory plant response rating [4, 17]: 0
Plant response rating, Morningglory [4, 14]: 0
Plant response rating, Pigweed [5, 11]: 0
Plant response rating, Pigweed [5, 16]: 0
Pigweed plant response rating [5, 17]: 0
Plant response rating, Pigweed [5, 14]: 0
Plant response rating, Velvetleaf [6, 11]: 0
Plant response rating, Velvetleaf [6, 16]: 0
Velvetleaf plant response rating [6, 17]: 0
Plant response rating, Velvetleaf [6, 14]: 0
Plant response rating, Wheat [7, 11]: 0
Plant response rating, Wheat [7, 16]: 0
Wheat plant response rating [7, 17]: 0
Plant response rating, Wheat [7, 14]: 0
Barnyardgrass plant response rating [8]: 0
Ducksalad plant response rating [9]: 0
Rice plant response rating (rice (Oryza sativa)): 0
Sedge, Umbrella plant response rating [10]: 0
